Consider four compounds from ChEMBL document CHEMBL5380795, “Design, Synthesis, and Bioactivity Investigation of Cyclic Lipopeptide Antibiotics Containing Eight to Nine Amino Acids” (J Med Chem, 2023).

Series [1] has as its system Escherichia coli. In words: Antibacterial activity against Escherichia coli ATCC BAA-2523 assessed as inhibition of bacterial growth incubated for 18 to 24 hrs by broth microdilution method. The class given is functional. Conditions: time 18-24 hrs. Background: In broth dilution the organism is exposed to a series of concentrations in liquid medium.
Series [2] relates to Staphylococcus epidermidis. In words: Antibacterial activity against methicillin resistant Staphylococcus epidermidis clinical isolate 19-6 assessed as inhibition of bacterial growth incubated for 18 to 24 hrs by broth microdilution method. The class given is functional. To be noted: time 18-24 hrs.
The nature of series [3]: Selectivity index, ratio of IC50 for cytotoxicity against human HK-2 cells to MIC for antibacterial activity against Escherichia coli ATCC BAA-2523. The class given is toxicity, cell-based.
In series [4] the test system is Staphylococcus aureus. As to the kind of experiment: Antibacterial activity against methicillin resistant Staphylococcus aureus ATCC 33591 assessed as inhibition of bacterial growth incubated for 18 to 24 hrs by broth microdilution method. The class given is functional. To be noted: time 18-24 hrs.
The subject of series [5] is Pseudomonas aeruginosa. In words: Antibacterial activity against Pseudomonas aeruginosa ATCC 27853 assessed as inhibition of bacterial growth incubated for 18 to 24 hrs by broth microdilution method. Conditions: time 18-24 hrs. The class given is functional.
Series [6] has as its system Klebsiella pneumoniae. As to the kind of experiment: Antibacterial activity against KPC producing Klebsiella pneumoniae ATCC BAA-1705 assessed as inhibition of bacterial growth incubated for 18 to 24 hrs by broth microdilution method. The class given is functional. Conditions: time 18-24 hrs.
Series [7] deals with Escherichia coli. In words: Antibacterial activity against Escherichia coli NCTC 13353 assessed as inhibition of bacterial growth incubated for 18 to 24 hrs by broth microdilution method. It is filed as functional. Conditions: time 18-24 hrs.
Series [8] deals with Pseudomonas aeruginosa. In words: Antibacterial activity against carbapenem resistant Pseudomonas aeruginosa clinical isolate 17-1 assessed as inhibition of bacterial growth incubated for 18 to 24 hrs by broth microdilution method. The class given is functional. To be noted: time 18-24 hrs.
Series [9] relates to Acinetobacter baumannii. In words: Antibacterial activity against oxacillinase-27 producing Acinetobacter baumannii NCTC 13304 assessed as inhibition of bacterial growth incubated for 18 to 24 hrs by broth microdilution method. The class given is functional. Conditions: time 18-24 hrs.
For series [10], the system named is Klebsiella pneumoniae. In words: Antibacterial activity against carbapenem resistant Klebsiella pneumoniae clinical isolate 19-15 assessed as inhibition of bacterial growth incubated for 18 to 24 hrs by broth microdilution method. Conditions: time 18-24 hrs. The class given is functional.
For series [11], the system named is Staphylococcus aureus. In words: Antibacterial activity against Staphylococcus aureus ATCC 29213 assessed as inhibition of bacterial growth incubated for 18 to 24 hrs by broth microdilution method. Conditions: time 18-24 hrs. The class given is functional.
Series [12] concerns Pseudomonas aeruginosa. As to the kind of experiment: Antibacterial activity against Pseudomonas aeruginosa clinical isolate 19-1 assessed as inhibition of bacterial growth incubated for 18 to 24 hrs by broth microdilution method. It is filed as functional. To be noted: time 18-24 hrs.
For series [13], the system named is Escherichia coli. In words: Antibacterial activity against Escherichia coli clinical isolate 19-2 assessed as inhibition of bacterial growth incubated for 18 to 24 hrs by broth microdilution method. The class given is functional. Conditions: time 18-24 hrs.
Series [14] relates to Escherichia coli. As to the kind of experiment: Antibacterial activity against KPC producing Escherichia coli ATCC BAA-2340 assessed as inhibition of bacterial growth incubated for 18 to 24 hrs by broth microdilution method. The class given is functional. Conditions: time 18-24 hrs.
The test system of series [15] is Pseudomonas aeruginosa. In words: Antibacterial activity against carbapenem resistant Pseudomonas aeruginosa clinical isolate 19-3 assessed as inhibition of bacterial growth incubated for 18 to 24 hrs by broth microdilution method. Conditions: time 18-24 hrs. It is filed as functional.
The nature of series [16]: Cytotoxicity against human HK-2 cells assessed as inhibition of cell growth incubated for 72 hrs by CCK-8 assay. The class given is toxicity, cell-based. (Tetrazolium assays rely on reduction of a dye to a coloured formazan, in cell work by metabolically active cells.)
Series [17] deals with Acinetobacter baumannii. As to the kind of experiment: Antibacterial activity against carbapenem resistant Acinetobacter baumannii clinical isolate 19-8 assessed as inhibition of bacterial growth incubated for 18 to 24 hrs by broth microdilution method. The class given is functional. To be noted: time 18-24 hrs.
Series [18] has as its system Klebsiella pneumoniae. In words: Antibacterial activity against carbapenem resistant Klebsiella pneumoniae clinical isolate 19-17 assessed as inhibition of bacterial growth incubated for 18 to 24 hrs by broth microdilution method. Conditions: time 18-24 hrs. The class given is functional.
The test system of series [19] is Staphylococcus epidermidis. In words: Antibacterial activity against methicillin resistant Staphylococcus epidermidis clinical isolate 19-5 assessed as inhibition of bacterial growth incubated for 18 to 24 hrs by broth microdilution method. It is filed as functional. To be noted: time 18-24 hrs.

Values after ≈ are worked out from the molar mass of the structure shown. Where only a bound is given, the exact number is not on record here.

For orientation: MIC means the lowest concentration found to suppress growth. By IC50 is commonly meant the concentration that inhibits the measured activity by half. Regarding `CCCCCCCCCC(=O)N[C@H](CCN)C(=O)N[C@H]1CCNC(=O)[C@H]([C@@H](C)O)NC(=O)[C@H](CCN)NC(=O)[C@H](CCN)NC(=O)[C@H](CC(C)C)NC(=O)[C@@H](Cc2ccccc2Cl)NC(=O)[C@H](CCN)NC1=O`, the MIC with Escherichia coli [1] is 2 µg/mL (≈ 1.9 µM); in series [2], 2 µg/mL (≈ 1.9 µM); in the series on Staphylococcus aureus [4] it was over 64 µg/mL; in the series on Pseudomonas aeruginosa [5] it was 32 µg/mL (≈ 30.5 µM); in the series on Klebsiella pneumoniae [6], 2 µg/mL (≈ 1.9 µM); in the series on Escherichia coli [7], 8 µg/mL (≈ 7.61 µM). The MIC with Pseudomonas aeruginosa [8] stood at 64 µg/mL (≈ 60.9 µM); in the series on Acinetobacter baumannii [9] it was 32 µg/mL (≈ 30.5 µM); with Klebsiella pneumoniae [10], 4 µg/mL (≈ 3.81 µM); in the series with Staphylococcus aureus [11], 64 µg/mL (≈ 60.9 µM); in the series with Pseudomonas aeruginosa [12] it was 2 µg/mL (≈ 1.9 µM); in the series with Escherichia coli [13], 2 µg/mL (≈ 1.9 µM). For the same compound, the MIC in the series on Escherichia coli [14] came to 2 µg/mL (≈ 1.9 µM); in the series with Pseudomonas aeruginosa [15] it was 2 µg/mL (≈ 1.9 µM); with Acinetobacter baumannii [17], 64 µg/mL (≈ 60.9 µM); in the series on Klebsiella pneumoniae [18], 4 µg/mL (≈ 3.81 µM); in [19] it was 4 µg/mL (≈ 3.81 µM). In addition, the selectivity ratio in [3] came to 27.3. In addition, the IC50 at 72 h in series [16] stood at 54.6 µg/mL (≈ 52 µM).

On to `CC[C@H](C)CCCCC(=O)N[C@H](CCN)C(=O)N[C@H]1CCNC(=O)[C@H](CC(C)C)NC(=O)[C@H](CCN)NC(=O)[C@H](CCN)NC(=O)[C@H](CC(C)C)NC(=O)[C@@H](CC(C)C)NC(=O)[C@H](CCN)NC1=O`, for which the MIC with Escherichia coli [1] was 8 µg/mL (≈ 8.16 µM); in series [2], 16 µg/mL (≈ 16.3 µM); in the series on Staphylococcus aureus [4] it was over 64 µg/mL; in the series on Pseudomonas aeruginosa [5], 1 µg/mL (≈ 1.02 µM); in the series on Klebsiella pneumoniae [6] it was 1 µg/mL (≈ 1.02 µM); in the series on Escherichia coli [7], 16 µg/mL (≈ 16.3 µM). For the same compound, the MIC is 1 µg/mL (≈ 1.02 µM) with Pseudomonas aeruginosa [8]; 8 µg/mL (≈ 8.16 µM) in the series with Acinetobacter baumannii [9]; 8 µg/mL (≈ 8.16 µM) in the series with Klebsiella pneumoniae [10]; over 64 µg/mL in the series on Staphylococcus aureus [11]; 2 µg/mL (≈ 2.04 µM) in the series on Pseudomonas aeruginosa [12]; 32 µg/mL (≈ 32.6 µM) in the series on Escherichia coli [13]. Also, the MIC with Escherichia coli [14] was found to be 1 µg/mL (≈ 1.02 µM); with Pseudomonas aeruginosa [15], 2 µg/mL (≈ 2.04 µM); in the series with Acinetobacter baumannii [17], 8 µg/mL (≈ 8.16 µM); with Klebsiella pneumoniae [18] it was 8 µg/mL (≈ 8.16 µM); in series [19] it was 4 µg/mL (≈ 4.08 µM). Besides, the selectivity ratio in series [3] was 10.9. In series [16], the IC50 at 72 h is 86.9 µg/mL (≈ 88.6 µM).

`CCCCCCCCCC(=O)N[C@H](CCN)C(=O)N[C@H]1CCNC(=O)[C@H]([C@@H](C)O)NC(=O)[C@H](CCN)NC(=O)[C@H](CCN)NC(=O)[C@H](CCCCCCCC)NC(=O)[C@@H](CC(C)C)NC(=O)[C@H](CCN)NC1=O`: the MIC was found to be 1 µg/mL (≈ 0.963 µM) in the series on Escherichia coli [1]; 2 µg/mL (≈ 1.93 µM) in [2]; 8 µg/mL (≈ 7.7 µM) with Staphylococcus aureus [4]; 2 µg/mL (≈ 1.93 µM) in the series with Pseudomonas aeruginosa [5]; 2 µg/mL (≈ 1.93 µM) in the series with Klebsiella pneumoniae [6]; 2 µg/mL (≈ 1.93 µM) in the series with Escherichia coli [7]. Also, the MIC was determined as 4 µg/mL (≈ 3.85 µM) in the series with Pseudomonas aeruginosa [8]; 4 µg/mL (≈ 3.85 µM) with Acinetobacter baumannii [9]; 2 µg/mL (≈ 1.93 µM) in the series with Klebsiella pneumoniae [10]; 8 µg/mL (≈ 7.7 µM) with Staphylococcus aureus [11]; 2 µg/mL (≈ 1.93 µM) with Pseudomonas aeruginosa [12]; 1 µg/mL (≈ 0.963 µM) with Escherichia coli [13]. For the same compound, the MIC in the series with Escherichia coli [14] was found to be 1 µg/mL (≈ 0.963 µM); in the series with Pseudomonas aeruginosa [15], 2 µg/mL (≈ 1.93 µM); in the series with Acinetobacter baumannii [17], 8 µg/mL (≈ 7.7 µM); in the series with Klebsiella pneumoniae [18] it was 2 µg/mL (≈ 1.93 µM); in series [19] it was 1 µg/mL (≈ 0.963 µM). Moreover, in series [3], the selectivity ratio was 9.1. In addition, the IC50 at 72 h in series [16] turned out to be 9.1 µg/mL (≈ 8.76 µM).

`CCCCCCCCCC(=O)N[C@H](CCN)C(=O)N[C@H]1CCNC(=O)[C@H](CO)NC(=O)[C@H](CCN)NC(=O)[C@H](CCN)NC(=O)[C@H](Cc2ccccc2)NC(=O)[C@@H](CC(C)C)NC(=O)[C@H](CCN)NC1=O`: the MIC in the series on Escherichia coli [1] is 16 µg/mL (≈ 16 µM); in series [2], 2 µg/mL (≈ 2 µM); in the series with Staphylococcus aureus [4] it was over 64 µg/mL; in the series on Pseudomonas aeruginosa [5], 64 µg/mL (≈ 63.9 µM); with Klebsiella pneumoniae [6], 8 µg/mL (≈ 7.98 µM); with Escherichia coli [7] it was 32 µg/mL (≈ 31.9 µM). The MIC in the series with Pseudomonas aeruginosa [8] is 64 µg/mL (≈ 63.9 µM); with Acinetobacter baumannii [9], over 64 µg/mL; in the series with Klebsiella pneumoniae [10] it was 32 µg/mL (≈ 31.9 µM); with Staphylococcus aureus [11] it was 64 µg/mL (≈ 63.9 µM); in the series with Pseudomonas aeruginosa [12], 16 µg/mL (≈ 16 µM); in the series on Escherichia coli [13] it was 16 µg/mL (≈ 16 µM). In addition, the MIC in the series with Escherichia coli [14] was 16 µg/mL (≈ 16 µM); with Pseudomonas aeruginosa [15], 16 µg/mL (≈ 16 µM); with Acinetobacter baumannii [17] it was over 64 µg/mL; in the series on Klebsiella pneumoniae [18], 64 µg/mL (≈ 63.9 µM); in series [19], 4 µg/mL (≈ 3.99 µM). The selectivity ratio in series [3] was found to be 9.1. Further, the IC50 at 72 h in [16] amounted to 146 µg/mL (≈ 145 µM).
